These are literature values, as cited in patent publication US5717095A, “Nucleotide analogs” (Gilead Sciences, Inc., priority 1996, dated 1998).

In data set [1] the test system is varicella zoster virus (VZV). To be noted: cited from earlier work.
For another data set, the system named is HCMV. The note with it: cited from earlier work.
Another data set relates to vaccinia virus. The note with it: cited from earlier work.
In a further data set the test system is adenovirus. To be noted: cited from earlier work.
Data set [2] deals with African swine fever (ASF) virus. To be noted: cited from earlier work.
Data set [3] concerns herpes simplex virus type 1. The note with it: mice and rabbits, local and systemic HSV-1 infections, including herpetic keratitis caused by acyclovir-type-drug-resistant TK^- mutant; cited from earlier work.
The test system of data set [4] is simian herpesvirus type 1 (SHV-1), or pseudorabies virus or Aujeszky's disease virus. The note with it: SHV-1 / pseudorabies virus; cited from earlier work.
The subject of data set [5] is bovid herpesvirus type 1 (infectious bovine rhinotracheitis virus, BHV-1). The note with it: cited from earlier work.
In data set [6] the test system is retroviruses such as murine sarcoma virus (MSV). The note with it: cited from earlier work.
The subject of data set [7] is herpes simplex virus, type 1 or 2 (HSV-1 and -2). To be noted: cited from earlier work.
For data set [8], the system named is phocid herpesvirus type 1 (seal herpesvirus, SeHV). The note with it: cited from earlier work.
The test system of data set [9] is thymidine kinase-deficient (TK^-) mutants of herpes simplex virus. The note with it: TK^- HSV mutants; cited from earlier work.
Data set [10] has as its system equid herpesvirus type 1 (equine abortion virus, EHV-1). The note with it: cited from earlier work.
Data set [11] relates to intraperitoneal P388 leukemia. To be noted: murine; cited from earlier work.

Entries after “also recorded” stand apart in the source; their conditions may differ.

Consider `Nc1ncnc2c1ncn2C[C@@H](CO)OCP(=O)(O)O` [(S)-HPMPA], for which the antiviral activity result in data set [1] was “active; also recorded: potent and selective activity”; with HCMV it was “potent and selective activity”; with vaccinia virus, “active; also recorded: potent and selective activity”; in the data set with adenovirus, “active; also recorded: potent and selective activity”; in data set [2] it was “potent and selective activity”; in [4], “potent and selective activity”. For the same compound, the antiviral activity entry was “potent and selective activity” in data set [5]; “potent and selective activity” in data set [6]; “active; also recorded: potent and selective activity” in data set [7]; “potent and selective activity” in data set [8]; “potent and selective activity” in data set [9]; “potent and selective activity” in data set [10]. Besides, the “in vivo antiviral effect” value in data set [3] is “effective”.
Take `Nc1ncnc2c1ncn2CC(CO)OCP(=O)(O)O` (centres unmarked) [HPMPA]: the antitumor activity result in [11] is on record as “active”.
